Test results: ChEMBL document CHEMBL1144878, “N-(omega-(4-(2-methoxyphenyl)piperazin-1-yl)alkyl)carboxamides as dopamine D2 and D3 receptor ligands” (J Med Chem, 2003)

Test system: D(3) dopamine receptor (Homo sapiens)
Assay: Intrinsic activity for Dopamine receptor D3 was determined

Intrinsic activity	SMILES
0.5	COc1ccccc1N1CCN(CCCCNC(=O)c2ccc(I)cc2)CC1

Molecular target: D(2) dopamine receptor (Homo sapiens, UniProt P14416)
Assay: biochemical
Description: Binding affinity for human dopamine receptor D2 by displacing [125I]iodosulpiride expressed in CHO cells

Sequence of D(2) dopamine receptor (P14416 whole entry): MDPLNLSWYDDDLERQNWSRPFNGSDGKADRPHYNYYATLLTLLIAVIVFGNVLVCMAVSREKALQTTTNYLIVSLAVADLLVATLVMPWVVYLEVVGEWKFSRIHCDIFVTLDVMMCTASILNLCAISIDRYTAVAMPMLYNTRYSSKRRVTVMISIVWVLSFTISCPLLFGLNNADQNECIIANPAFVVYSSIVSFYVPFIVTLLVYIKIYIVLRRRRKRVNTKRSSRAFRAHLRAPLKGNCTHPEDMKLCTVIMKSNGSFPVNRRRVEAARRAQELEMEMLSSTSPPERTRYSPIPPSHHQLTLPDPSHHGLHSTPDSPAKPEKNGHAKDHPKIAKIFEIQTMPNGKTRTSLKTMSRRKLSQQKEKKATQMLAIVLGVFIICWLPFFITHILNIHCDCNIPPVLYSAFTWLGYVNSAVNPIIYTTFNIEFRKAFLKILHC

Ki [nM]	SMILES
21	COc1ccccc1N1CCN(CCCCNC(=O)/C=C/c2ccc(Cl)cc2Cl)CC1
146	COc1ccccc1N1CCN(CCCCNC(=O)c2ccc(I)cc2)CC1
26.5	COc1ccccc1N1CCN(CCCCNC(=O)c2ccc(C(C)(C)C)cc2)CC1
200	COc1ccccc1N1CCN(Cc2ccc(CNC(=O)c3ccc4ccccc4c3)cc2)CC1
56	COc1ccccc1N1CCN(CCCCNC(=O)C2(c3ccc(Cl)cc3)CCCC2)CC1
7.2	COc1ccccc1N1CCN(CCCCNC(=O)/C=C/c2ccc(/C=C/C(=O)NCCCCN3CCN(c4ccccc4OC)CC3)cc2)CC1
71.9	COc1ccccc1N1CCN(CCCCNC(=O)c2sc3ccccc3c2Cl)CC1
235	COc1ccccc1N1CCN(CCCNC(=O)c2cccc(I)c2)CC1
17.5	COc1ccccc1N1CCN(CCCCNC(=O)c2ccc(C(C)=O)cc2)CC1
15	COc1ccccc1N1CCN(CCCCNC(=O)/C=C/c2ccccc2Cl)CC1
50	COc1ccccc1N1CCN(CCCCN2C(=O)c3ccccc3C2=O)CC1
27.5	COc1ccccc1N1CCN(CCCCNC(=O)c2cc3ccccc3cn2)CC1
63	COc1ccccc1N1CCN(CCCCNC(=O)/C=C/c2ccccc2I)CC1
630	COc1ccccc1N1CCN(C2CC3CC(N4CCN(c5ccccc5OC)CC4)CC3C2)CC1 (stereo not drawn)
178	COc1ccccc1N1CCN(C2CC3CC(NC(=O)c4ccc5ccccc5c4)CC3C2)CC1 (stereo not drawn)
23	COc1ccccc1N1CCN(CCCCNC(=O)/C=C/c2ccc(Cl)c(Cl)c2)CC1
18	COc1ccccc1N1CCN(Cc2ccccc2CNC(=O)/C=C/c2ccccc2)CC1
32	COc1ccccc1N1CCN(CCCCNC(=O)/C=C/c2ccc3ccccc3c2)CC1
11.5	COc1ccccc1N1CCN(CCCCNC(=O)/C=C/c2ccc(C=O)cc2)CC1
50.2	COc1ccccc1N1CCN(CCCCNC(=O)/C=C/c2cccc(C(F)(F)F)c2)CC1
68	COc1ccccc1N1CCN(CCCCNC(=O)c2cccc(I)c2)CC1
13	COc1ccccc1N1CCN(CCCCNC(=O)/C=C/c2ccsc2)CC1

SMILES	Ki [nM]
COc1ccccc1N1CCN(CCCCNC(=O)/C=C/c2ccco2)CC1	11.1
COc1ccccc1N1CCN(CCCCNC(=O)/C=C/c2ccc(OCc3ccccc3)cc2)CC1	32
COc1ccccc1N1CCN(CCCCNC(=O)c2ccc(C(=O)c3ccccc3)cc2)CC1	63
COc1ccccc1N1CCN(CCCCNC(=O)c2nccc3ccccc23)CC1	20.9
COc1ccccc1N1CCN(CCCCNC(=O)C2CC2c2ccccc2)CC1 (stereo not drawn)	81
COc1ccccc1N1CCN(CCCCNC(=O)/C=C/c2ccc(-c3ccccc3)cc2)CC1	37
COc1ccccc1N1CCN(CCCCNC(=O)/C=C/c2cccnc2)CC1	14.5
COc1ccccc1N1CCN(CCCCNC(=O)/C=C/C=C/c2ccccc2)CC1	19
COc1ccccc1N1CCN(CCCCN2C(=O)c3cccc4cccc(c34)C2=O)CC1	40
COc1ccccc1N1CCN(CCCCNC(=O)/C=C/c2cccs2)CC1	9.5
COc1ccccc1N1CCN(CCCCNC(=O)c2coc3ccccc3c2=O)CC1	47
COc1ccccc1N1CCN(CCCCNC(=O)/C=C/c2cccc(Oc3ccccc3)c2)CC1	114
COc1ccccc1N1CCN(CCCCNC(=O)CCc2ccccc2)CC1	48.7

Molecular target: D(3) dopamine receptor (Homo sapiens)
Assay: Effective concentration for Dopamine receptor D3 was determined

EC50 [nM]	SMILES
1.2	COc1ccccc1N1CCN(CCCCNC(=O)c2ccc(I)cc2)CC1

Molecular target: T1, D(3) dopamine receptor (Homo sapiens, UniProt P35462)
Assay: Effective concentration for Dopamine receptor D3 was determined
Type: functional
Target sequence in this assay (P35462 whole entry, looked up): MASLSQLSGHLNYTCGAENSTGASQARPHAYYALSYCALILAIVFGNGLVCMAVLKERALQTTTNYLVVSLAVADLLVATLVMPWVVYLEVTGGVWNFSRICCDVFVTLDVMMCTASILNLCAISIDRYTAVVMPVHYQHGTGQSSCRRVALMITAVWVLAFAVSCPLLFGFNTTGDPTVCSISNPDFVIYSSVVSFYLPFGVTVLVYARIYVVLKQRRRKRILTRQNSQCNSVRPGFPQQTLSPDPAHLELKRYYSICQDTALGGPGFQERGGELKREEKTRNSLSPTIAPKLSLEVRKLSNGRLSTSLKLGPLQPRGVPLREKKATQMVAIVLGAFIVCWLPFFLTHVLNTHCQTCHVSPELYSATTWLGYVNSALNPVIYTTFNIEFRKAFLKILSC

EC50 [nM]	SMILES
2.5	COc1ccccc1N1CCN(CCCCNC(=O)c2cc3ccccc3cn2)CC1

Molecular target: T1, D(3) dopamine receptor
Assay: biochemical
Target sequence in this assay (P35462 whole entry): as the sequence (P35462 whole entry, looked up) above
Description: Binding affinity for human dopamine receptor D3 by displacing [125I]iodosulpiride expressed in CHO cells

Ki [nM]	SMILES
1.28	COc1ccccc1N1CCN(CCCCNC(=O)/C=C/c2ccc(Cl)cc2Cl)CC1
3.9	COc1ccccc1N1CCN(CCCCNC(=O)c2ccc(I)cc2)CC1
7.99	COc1ccccc1N1CCN(CCCCNC(=O)c2ccc(C(C)(C)C)cc2)CC1
40	COc1ccccc1N1CCN(Cc2ccc(CNC(=O)c3ccc4ccccc4c3)cc2)CC1
42	COc1ccccc1N1CCN(CCCCNC(=O)C2(c3ccc(Cl)cc3)CCCC2)CC1
3.6	COc1ccccc1N1CCN(CCCCNC(=O)/C=C/c2ccc(/C=C/C(=O)NCCCCN3CCN(c4ccccc4OC)CC3)cc2)CC1
6.7	COc1ccccc1N1CCN(CCCCNC(=O)c2sc3ccccc3c2Cl)CC1
300	COc1ccccc1N1CCN(CCCNC(=O)c2cccc(I)c2)CC1
1	COc1ccccc1N1CCN(CCCCNC(=O)c2ccc(C(C)=O)cc2)CC1
0.52	COc1ccccc1N1CCN(CCCCNC(=O)/C=C/c2ccccc2Cl)CC1
38	COc1ccccc1N1CCN(CCCCN2C(=O)c3ccccc3C2=O)CC1
1.48	COc1ccccc1N1CCN(CCCCNC(=O)c2cc3ccccc3cn2)CC1
0.75	COc1ccccc1N1CCN(CCCCNC(=O)/C=C/c2ccccc2I)CC1
700	COc1ccccc1N1CCN(C2CC3CC(N4CCN(c5ccccc5OC)CC4)CC3C2)CC1 (stereo not drawn)
37.2	COc1ccccc1N1CCN(C2CC3CC(NC(=O)c4ccc5ccccc5c4)CC3C2)CC1 (stereo not drawn)
1.31	COc1ccccc1N1CCN(CCCCNC(=O)/C=C/c2ccc(Cl)c(Cl)c2)CC1
325	COc1ccccc1N1CCN(Cc2ccccc2CNC(=O)/C=C/c2ccccc2)CC1
0.68	COc1ccccc1N1CCN(CCCCNC(=O)/C=C/c2ccc3ccccc3c2)CC1
0.73	COc1ccccc1N1CCN(CCCCNC(=O)/C=C/c2ccc(C=O)cc2)CC1
4.1	COc1ccccc1N1CCN(CCCCNC(=O)/C=C/c2cccc(C(F)(F)F)c2)CC1
9.2	COc1ccccc1N1CCN(CCCCNC(=O)c2cccc(I)c2)CC1
0.64	COc1ccccc1N1CCN(CCCCNC(=O)/C=C/c2ccsc2)CC1

SMILES	Ki [nM]
COc1ccccc1N1CCN(CCCCNC(=O)/C=C/c2ccco2)CC1	0.6
COc1ccccc1N1CCN(CCCCNC(=O)/C=C/c2ccc(OCc3ccccc3)cc2)CC1	19.5
COc1ccccc1N1CCN(CCCCNC(=O)c2ccc(C(=O)c3ccccc3)cc2)CC1	2.5
COc1ccccc1N1CCN(CCCCNC(=O)c2nccc3ccccc23)CC1	9.62
COc1ccccc1N1CCN(CCCCNC(=O)C2CC2c2ccccc2)CC1 (stereo not drawn)	15.5
COc1ccccc1N1CCN(CCCCNC(=O)/C=C/c2ccc(-c3ccccc3)cc2)CC1	16
COc1ccccc1N1CCN(CCCCNC(=O)/C=C/c2cccnc2)CC1	0.5
COc1ccccc1N1CCN(CCCCNC(=O)/C=C/C=C/c2ccccc2)CC1	1.5
COc1ccccc1N1CCN(CCCCN2C(=O)c3cccc4cccc(c34)C2=O)CC1	29
COc1ccccc1N1CCN(CCCCNC(=O)/C=C/c2cccs2)CC1	0.59
COc1ccccc1N1CCN(CCCCNC(=O)c2coc3ccccc3c2=O)CC1	3.3
COc1ccccc1N1CCN(CCCCNC(=O)/C=C/c2cccc(Oc3ccccc3)c2)CC1	19.5
COc1ccccc1N1CCN(CCCCNC(=O)CCc2ccccc2)CC1	4.8
